These results are taken from patent publication US8877795B2, “Identification of stabilizers of multimeric proteins” (The Board of Trustees of the Leland Stanford Junior …, priority 2010, dated 2014).

Data set [1] addresses T1, TTR (Homo sapiens (Human), UniProt P02766). To be noted: read-out: Kd (reported affinity for TTR); cited from earlier work.
The target in data set [2] is T1, TTR. As to the kind of experiment: Fluorescence polarization displacement assay (probe 5 displaced from TTR). The note with it: probe 5 100 nM, TTR 200 nM. The class given is binding. As for the experimental part: The affinity of test compounds to TTR was determined as follows. […] The samples were allowed to equilibrate by agitation for 20 min at room temperature and the fluorescence polarization was measured as described above. The data were fit to the following equation [y=(A−D)/(1+(x/C)^B)+D] where A=maximum FP signal, B=slope, C=apparent binding constant (Kapp), and D=minimum FP signal. The apparent binding constant was reported as mean for triplicate experiments and the best data fit was determined by R^2 value.
A general note: In fluorescence polarisation assays a small probe gives low polarisation when free and higher when bound to something large.

Data set [3] deals with human wild type TTR (Homo sapiens (Human), UniProt P02766). As to the kind of experiment: Isothermal titration calorimetry (ITC) of ligands against TTR. The class given is binding. The note with it: for TΔS binding entropy / ΔG binding free energy / ΔH binding enthalpy: ITC; for Kd: TTR 2 μM titrated with ligand 25 μM. As for the experimental part:
Calorimetric titrations were carried out on a VP-ITC calorimeter (MicroCal, Northhampton, Mass.). […] Prior to each titration, all samples were degassed for 10 minutes. The initial injection of 3.0 μL was followed by 30 injections of 8.0 μL each (25° C.) to the point that TTR was fully saturated with ligand. Integration of the thermogram after subtraction of blanks yielded a binding isotherm that was analyzed with MicroCal Origin 5.0 software.
Background: ITC needs no label: the signal is the heat of the interaction.

Data set [4] concerns the target WT TTR (Homo sapiens (Human), UniProt P02766). As to the kind of experiment: Acid-mediated fibril formation assay for TTR amyloidogenesis (turbidity). To be noted: TTR 3.6 μM; for inhibition of fibril formation: substoichiometric: ligand 3.0 μM, monitored over 5 days.
Protocol: The efficacy of each compound to inhibit TTR amyloidogenesis was determined by monitoring the turbidity of TTR aggregation at acidic pH, as described previously. […] The final 1 ml sample mixture was vortexed, then incubated at 37° C. for 72 hours, after which the sample was vortexed and the optical density was measured at 400 nm on a Beckman DU® 640 spectrophotometer. […] The optical density was also corrected for the absorption of all test compounds in the absence of TTR. […] The optical density (400 nm) was measured as described above at 0, 24, 48, 72, 96, and 120 hours. All assays were performed in triplicate and the average values obtained are presented.
TTR was preincubated with small molecules for 30 min at room temperature before amyloidosis was initiated (lowering pH to 4.4, incubation at 37° C.). […] The amyloidogenesis inhibition efficacy of each compound was determined by monitoring the turbidity of TTR (400 nm). The extent of TTR amyloidogenesis was quantitated at a fixed time point (72 h). All amyloid fibril formation data was normalized to TTR amyloidogenesis in the absence of inhibitor, assigned to be 100% fibril formation. […] The aggregation inhibition was monitored over 5 days using the acid-mediated fibril formation assay (compared to 3 days for the fixed time point described above) (FIG. 5B).
In data set [5] the test system is WT TTR cytotoxicity in human IMR-32 neuroblastoma cells. As to the kind of experiment: Inhibition of WT TTR cytotoxicity in IMR-32 cells. To be noted: TTR and ligand 8 μM, 24 h.
Protocol: (§1) The human cardiac cell line AC16 was maintained in DMEM:F12 (1:1) supplemented with 10% FBS, 1 mM Hepes buffer, 2 mM L-glutamine, 100 units/mL penicillin and 100 μg/mL streptomycin. Two to 4-day-old cultures (˜70% confluent) were used for the experiments.
(§2) Recombinant WT TTR purified in the cold in HBSS (Mediatech, Manassas, Va.) was used as a cytotoxic insult to IMR-32 cells and the amyloidogenic V122I TTR was used as cytotoxic insult to cardiac AC16 cells. Candidate compounds (16 mM in DMSO) were diluted 1:1000 with WT TTR or V122I TTR (16 mM in HBSS, filter sterilized) or with HBSS only. The mixtures were vortexed and incubated for 24 h at 4° C. WT TTR or V122I TTR (16 mM in HBSS) containing the same amount of DMSO than TTR/candidate compound mixtures was prepared in parallel and incubated under the same conditions.
(§3) The neuroblastoma IMR-32 and the cardiac AC16 cells were seeded in black wall, clear bottom, tissue culture treated 96-well plates (Costar) at a density of 6,000 cells/well and 250 cells/well, respectively in Opti-mem supplemented with 5% FBS, 1 mM Hepes buffer, 2 mM L-glutamine, 100 units/mL penicillin and 100 μg/mL streptomycin, 0.05 mg/mL CaCl2 and incubated overnight at 37° C. The medium was then removed and replaced immediately by the TTR/compound or HBSS previously diluted 1:1 in Opti-mem supplemented with 0.8 mg/mL BSA, 2 mM Hepes buffer, 4 mM L-glutamine, 200 units/mL penicillin, 200 μg/mL streptomycin and 0.1 mg/mL CaCl2. The cells were incubated 24 h at 37° C. after which cell viability was measured.
(§4) Cell viability of the cells treated with TTR or TTR/candidate compound was evaluated by a resazurin reduction assay. Briefly, 10 μL/well of resazurin (500 mM, PBS) was added to each well and incubated for 2-3 h at 37° C. Viable cells reduce resazurin to the highly fluorescent resorufin dye, which is quantitated in a multiwell plate reader (Ex/Em 530/590 nm, Tecan Safire2, Austria). Cell viability was calculated as percentage of fluorescence relative to cells treated with vehicle only (100% viability) after subtraction of blank fluorescence (wells without cells). All experimental conditions were performed at least in six replicates. Averages and SEM corresponding to 2 independently performed experiments were calculated.
(§5) The compounds under study were pre-incubated with WT TTR or V122I TTR for 24 h at 4° C. at equimolar concentrations (8 μM) and added to IMR-32 cells or AC16 cells, respectively. Cell viability was measured after 24 h by a resazurin reduction assay. […] The percentage of viable cells was calculated relative to cells treated with vehicle only (cell culture media and DMSO)—which were assigned to be 100% viable.
Data set [6] deals with V122I TTR cytotoxicity in human AC16 cardiac cells. As to the kind of experiment: Inhibition of V122I TTR cytotoxicity in AC16 cells. To be noted: TTR and ligand 8 μM, 24 h.
Protocol: as §1, §2, §3, §4, §5
Data set [7] addresses wild type biotinylated TTR (Homo sapiens (Human), UniProt P02766). Nature of the data set: Surface plasmon resonance (SPR) assay for TTR-ligand interaction. It is filed as binding. As for the experimental part: To an ice-cold solution of TTR (20 μM) in PBS was added EZ-Link Sulfo-NHS-LC-Biotin at a ratio of ˜2:1 (biotin:TTR) (minimal biotinylation) and the solution was incubated at room temperature. After 1 hour, un-reacted biotin was removed by passing the sample over a fast (FPLC) desalting column (Superdex™ 75) equilibrated with PBS.
SPR measurements were performed at 25° C. using a Biacore T100 (GE Healthcare) instrument equilibrated in 1% DMSO in PBS as a running buffer. After pretreatment of the streptavidin-coated chip (Sensor Chop SA, Biacore), ˜4000 RU biotinylated TTR was immobilized on one channel leaving the second flow channel as a blank (streptavidin alone) control. For binding measurements, HTS hits were diluted in running buffer (1% DMSO/PBS) and different dilution series were flowed over the chip at 50 μL/min ([…], 600 s wash). A zero concentration sample was used as a negative control. The kinetic data was fitted to a one-to-one binding model using Biacore T100 evaluation software.
A general note: SPR reads the build-up and loss of mass on a sensor chip optically.

The target in data set [8] is T1, TTR. Nature of the data set: Fluorescence polarization saturation binding experiment. How it is done: The binding of probe 5 for TTR was evaluated as follows. […] The samples were allowed to equilibrate by agitation for 20 min at room temperature. Fluorescence polarization (excitation λ 485 nm, emission λ 525 nm, Cutoff λ 515 nm) measurements were taken using SpectraMax M5 Microplate Reader (Molecular Devices). […] Nonspecific FP, produced by the free fluorescent probe 5 as well as by binding of 5 to the plate, was equal to 70±10 mP.

The target in data set [9] is IL-2 (Homo sapiens (Human), UniProt P60568). To be noted: cited from earlier work.
Where [10] appears, read: read-out: FP Kapp (apparent binding constant).
Where [11] appears, read: 25° C., one-to-one binding model, read-out: Kd (ITC).

Where two headings read alike, the source gives them in different places.

Chain of IL-2 (P60568 21-153): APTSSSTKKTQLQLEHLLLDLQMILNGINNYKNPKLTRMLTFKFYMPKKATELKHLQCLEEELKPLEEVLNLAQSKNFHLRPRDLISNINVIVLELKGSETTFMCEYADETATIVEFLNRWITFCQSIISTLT

Regarding `O=C(O)c1ccc(-c2c(F)cccc2F)cc1` [Compound 1, reference compound], the Kd in [1] is 80 nM. Besides, the apparent binding constant (Kapp) in data set [2] (setting [10]) is 231 nM. Further, in data set [3], the TΔS binding entropy was -21.72 ± 0.26 kcal/mol, the “ΔG binding free energy” value is -9.74 ± 0.10 kcal/mol and the ΔH binding enthalpy was -31.46 ± 0.37 kcal/mol. Further, the Kd in data set [3] (setting [11]) turned out to be 72.5 ± 4.7 nM. In addition, the Kd in data set [3] (read-out: ITC Kd) came to 72.4 nM.
`NCCOCCOCCNC(=O)c1ccc(-c2c(F)cccc2F)cc1` [Compound 2, N-(2-(2-(2-aminoethoxy)ethoxy)ethyl)-2′,6′-difluorobiphenyl-4-carboxamide]: in data set [2], the “displacement of probe 5 from TTR (FP signal)” value is “did not displace probe 5”. Also, the Kd in data set [2] (setting [10]) was over 50000 nM; in data set [3] (setting [11]), over 3290 nM; in [3] (read-out: ITC Kd) it was over 3290 nM.
Regarding `CN1C(=N)NC(=O)/C1=C/c1cc(Br)c(O)c(Br)c1` [Compound 14], the “inhibition of fibril formation” value in data set [4] is over 75%. The “prevention of WT TTR-induced cytotoxicity (in words)” value in data set [5] is recorded as “completely prevented TTR-induced cytotoxicity”. In [3], the TΔS binding entropy worked out at 2.36 ± 0.08 kcal/mol, the “ΔG binding free energy” value is -9.02 ± 0.19 kcal/mol and the ΔH binding enthalpy was -6.66 ± 0.22 kcal/mol. In [3] (setting [11]), the Kd was found to be 245 nM. Also, in [6], the “prevention of V122I TTR-induced cytotoxicity (in words)” value is “completely prevented TTR-induced cytotoxicity”.
For orientation: koff means a measure of how fast the partners let go of each other. The low end stands for slow dissociation, the high end for fast dissociation. As a reminder, the kon is the rate constant with which the complex forms. Low values mean slower complex formation, high ones faster complex formation. Consider `O=C(O)Cc1ccccc1Nc1c(Cl)cccc1Cl` [Diclofenac, reference compound], for which, in [4], the “inhibition of fibril formation” value was about 55%. The Kd in [2] (setting [10]) was 4660 nM. In [3], the TΔS binding entropy came to 4.08 ± 0.37 kcal/mol, the “ΔG binding free energy” value is -8.78 ± 0.59 kcal/mol and the ΔH binding enthalpy was -4.69 ± 0.42 kcal/mol. In addition, in data set [3] (listed as diclofenac), the TΔS binding entropy was determined as 4.08 ± 0.37 kcal/mol, the “ΔG binding free energy” value is -8.78 ± 0.59 kcal/mol and the ΔH binding enthalpy was -4.69 ± 0.42 kcal/mol. In addition, the Kd in data set [3] (setting [11]) turned out to be 370 nM. The Kd in data set [3] (read-out: ITC Kd) came to 370 nM. Moreover, the Kd in [7] (25° C., read-out: Kd (SPR, equilibrium / steady state analysis)) turned out to be 124 ± 8.91 nM. In addition, in data set [7] (SPR), the dissociation rate constant (koff) was 1.01 s⁻¹, the on-rate constant (kon) is 8.18e+06 M⁻¹ s⁻¹ and the “lower target residence time than 7” value was about 40 ×.
On to `O=C(c1cc(O)c(O)c([N+](=O)[O-])c1)c1ccccc1F` [Ro 41-0960, reference compound], for which the “TTR aggregation inhibition (in words)” value in data set [4] (ligand 7.2 μM, 72 h) is recorded as “potent aggregation inhibitors”. The “inhibition of fibril formation” value in data set [4] is over 75%. Moreover, the “prevention of WT TTR-induced cytotoxicity (in words)” value in data set [5] is recorded as “completely prevented TTR-induced cytotoxicity”. In data set [3], the TΔS binding entropy was -4.3 ± 0.11 kcal/mol, the “ΔG binding free energy” value is -9.18 ± 0.47 kcal/mol and the ΔH binding enthalpy was -13.5 ± 0.32 kcal/mol. Also, in data set [3] (listed as Ro41-0960), the TΔS binding entropy is -4.3 ± 0.11 kcal/mol, the “ΔG binding free energy” value was -9.18 ± 0.47 kcal/mol and the ΔH binding enthalpy is -13.5 ± 0.32 kcal/mol. The Kd in data set [3] (setting [11]) was found to be 184 nM. The “prevention of V122I TTR-induced cytotoxicity (in words)” value in data set [6] is “completely prevented TTR-induced cytotoxicity”.
In the case of Fluorescein isothiocyanate [FITC], the “change in FP signal upon addition of TTR” value in [8] is reported as “no change in the FP signal”.
In general, IC50 refers to the point on the concentration scale where inhibition reaches its midpoint. Consider Ro26-4550, for which the concentration for half-maximal inhibition (IC50) in data set [9] (read-out: IC50 (IL-2 antagonist)) is 3000 to 6000 nM; in [9] (read-out: IC50 (Ro26-4550 bound to IL2)) it was 6000 nM.
